Measured values: patent US11136370B2, “Compositions and methods for thrombin generation assay” (The Scripps Research Institute, priority 2016, dated 2021)
“Also recorded” adds a separate entry of the source.

Legend:
[1] = system: immobilized rTF; test: Blood perfusion over immobilized rTF, volume of platelet aggregates and fibrin; format: cell-based, human
Experimental: Glass coverslips treated with 0.2 mg/ml poly-L-lysine for 6 h at 37° C. were coated with rTF for 18-20 hours at 37° C. or 2.5 mg/ml acid-insoluble type I collagen for 2 hours at 22-25° C. Then they were rinsed with pH 7.4 buffered-saline, assembled in a rectangular flow chamber with a 125 μm-high silicon gasket and positioned on a confocal microscope stage for analysis. Venous blood for testing was collected into final 10.9 mM trisodium citrate using a plastic syringe for normal volunteers or Vacutainer tubes (Becton Dickinson, Buccinasco, Milan) for patients and controls. Before perfusion at a flow rate yielding an initial wall shear rate of 300 s^−1 maintained with a syringe pump (Harvard Apparatus, Holliston, Mass.), CaCl2 was added to obtain 1.29 mM Ca^2+. In the blood of patients—potentially hypercoagulable—and related controls, lepirudin (50 nM) was also added to neutralize thrombin possibly generated before testing. […] For experiments with WT and mutant FVIIa, cells from group O citrated blood, containing 50 μg/ml CTI and 10 U/ml (ADPase activity) apyrase, were washed free of plasma by sequential centrifugation steps at 1500 g for 7 min. After the first, plasma was replaced with an equal volume of calcium-free Tyrode buffer, pH 6.5, with 5 U/ml apyrase; then with buffer and 1.25 U/ml apyrase; and finally with human FVII deficient plasma (George King Bio-Medical, Overland Park, Kans.) up to the original blood volume. Cell count results in reconstituted and native blood were within 90%. Experiments in Milan (Italy) were performed with a Leica TCS SP5 microscope and HCX PL APO 63x/1.40 NA oil immersion objective (Leica Microsystems GmbH, Wetzlar, Germany); in La Jolla (California) with a Zeiss Axiovert 135M/LSM 410 and Plan-Apochromat 40x/1.40 NA oil immersion objective (Carl Zeiss AG, Oberkochen, Germany).
Platelets adhering and aggregating onto the surface were visualized by adding quinacrine-HCl (mepacrine; 10 μg/ml; Sigma-Aldrich) to blood. Deposited fibrin was visualized with Alexa Fluor 546-labeled (Invitrogen) mouse monoclonal IgG (50 μg/ml) specific for the B chain of mouse and human fibrin (HB-8545; ATCC). Blood was perfused for 3-5 min at 37° C. with a syringe pump (Harvard Apparatus Inc.) at a flow rate yielding an initial (in the unobstructed flow path) wall shear rate of 300 s^−1. This was followed by buffer (DMEM) for 2 minutes to facilitate fibrin quantification by confocal z section analysis using a Zeiss Axiovert 135M/LSM 410 microscope (Carl Zeiss) and Plan-Apochromat×63/1.40 NA oil immersion objective. Image analysis was performed with NIH ImageJ64. Deposited fibrin volume was measured from confocal sections collected at 4 preset positions in the flow chamber. Total volume of deposited platelets and fibrin was calculated from the sum of the respective area coverage per section multiplied by the z interval (2 μm). All studies involving human subjects were conducted following institutionally approved protocols.
TF-coated glass coverslips were perfused with venous blood at a wall shear rate of 300 s^−1. A Zeiss Axiovert 135M/LSM 410 and Plan-Apochromat 40x/1.40 NA oil immersion objective (Carl Zeiss AG, Oberkochen, Germany) was used to visualize platelets/leukocytes and fibrin stained with mepacrine and a specific anti-body, respectively. Image analysis to calculate volumes was performed as described herein.
Glass coverslips treated with 0.2 mg/ml poly-L-lysine for 6 h at 37° C. were coated with rTF for 18-20 hours at 37° C., rinsed with buffered-saline and assembled in a rectangular flow chamber with a 125 μm-high silicon gasket. Venous blood was collected into final 10.9 mM trisodium citrate using a plastic syringe. CaCl2 was added to obtain 1.29 mM Ca^2+ before perfusion at a wall shear rate of 300 s-1 maintained with a syringe pump (Harvard Apparatus, Holliston, Mass.). […]

[2] = molecular target: T1, FXa V17M mutant (Homo sapiens, UniProt P00742, V236M); test: FVIIIa generation by FXa V17M in stable complex with TF-iFVIIa-NAPc2; format: biochemical; conditions: up to 5 nM rivaroxaban
T1 construct: TF-associated FVIIa has converted FX into FXa active protease

[3] = molecular target: T2, pre-activated FXa either free or in a NAPc2-stabilized complex with TF-iFVIIa (Homo sapiens, UniProt P00742); test: FVIII activation (FVIIIa generation, WB) by pre-activated FXa, free or in NAPc2-stabilized complex; format: biochemical; conditions: therapeutic concentrations, 50-450 nM
T2 construct: purchased Haematologic Technologies (FXa); Siemens Healthcare Diagnostics (rTF, Dade Innovin)
T2 sequence (P00742 41-179 limits assumed): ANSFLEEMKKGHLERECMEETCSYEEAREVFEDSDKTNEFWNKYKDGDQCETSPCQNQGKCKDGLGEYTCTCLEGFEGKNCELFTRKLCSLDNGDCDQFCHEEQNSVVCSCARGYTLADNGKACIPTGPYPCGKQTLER
T2 sequence (P00742 235-488 limits assumed): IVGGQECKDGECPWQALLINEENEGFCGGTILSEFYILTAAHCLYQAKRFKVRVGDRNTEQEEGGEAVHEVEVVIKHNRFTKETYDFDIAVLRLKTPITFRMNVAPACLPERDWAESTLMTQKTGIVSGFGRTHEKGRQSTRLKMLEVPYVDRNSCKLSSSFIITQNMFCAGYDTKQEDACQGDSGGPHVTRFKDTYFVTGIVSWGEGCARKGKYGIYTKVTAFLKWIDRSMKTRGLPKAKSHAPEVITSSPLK
Experimental: (D) WB analysis (representing 2) of FVIIIa generation by pre-activated or de novo generated FXa and its inhibition by increasing concentrations of AT/penta. Reactions (37° C.) initiated by 200 pM FXa or 20 pM FVIIa with 50 nM FX into mixtures of 400 pM TF, 0.7 nM FVIII, 200 nM lepirudin without (top, incubation 60 s) or with (bottom, incubation 120 s) 3 nM FV/50 nM FIX. (E) Quantification (relative to non-inhibited control) of FVIIIa generated as in D (bottom) calibrated with known FVIIIa quantities (n=6-8 by nascent FXa, 4-6 by pre-formed FXa). […]
Coagulation reaction products were separated by reducing sodium dodecyl sulfate-polyacrylamide gel electrophoresis (SDS-PAGE), except for the analysis of FVIII activation in the presence of anti-FVIIa MoAbs that was performed under non-reducing conditions. […] Quantitative infrared detection of FVIIIa and FVa was obtained with IRDye 800CW-conjugated anti-mouse IgG or streptavidin followed by analysis with the Odyssey infrared imager (Li-COR, Lincoln, Nebr.). Concentrations were calculated by calibration with known quantities of FVIIIa and FVa. […]

T1 sequence (P00742 41-179): as the sequence (P00742 41-179 limits assumed) above
T1 sequence (P00742 235-488 V236M): as the sequence (P00742 235-488 limits assumed) above, with V2M counted along it

O=C(NC[C@H]1CN(c2ccc(N3CCOCC3=O)cc2)C(=O)O1)c1ccc(Cl)s1 [Rivaroxaban]
fibrin deposition ([1]; blood of treated patients, high density TF surface): as low as in warfarin treated patients
volume of deposited fibrin ([1]; blood of treated patients, higher rTF coating concentration, 300 s^-1, 5 min): significantly greater; also recorded: fibrin formation in the normal range
volume of deposited fibrin vs untreated controls ([1]; blood of treated patients, lower rTF coating concentration, 300 s^-1, 5 min): markedly smaller
volume of platelet aggregates vs controls ([1]; blood of treated patients, rTF coating 20 and 40 pM): non significantly different from controls
fibrin volume ([1]; rivaroxaban added to normal blood in vitro at the concentration measured in treated patients): reduced fibrin volume partially
effect on FVIIIa generation by FXa V17M [2]: insensitive
inhibition of FVIII activation by pre-activated FXa [3]: ~90%
